The conditions of the series: Crystal; visual observation.

± gives the expanded uncertainty stated by the source.

Take `CC1=C(NCc2ccccc2)C(=O)c2ccccc2C1=O` [2-(benzylamino)-3-methylnaphthalene-1,4-dione]: the Normal melting temperature is 91.7 ± 2.6 °C.

As to `CC1=C(NCCc2ccccc2)C(=O)c2ccccc2C1=O` [3-(phenethylamino)-2-methylnaphthalene-1,4-dione], the Normal melting temperature was determined as 92.6 ± 1.6 °C.

The record behind these values is the NIST ThermoML archive (doi:10.1016/j.jct.2016.08.016).
